# From ChEMBL document CHEMBL1128914, “Suppression of morphine and cocaine self-administration in rats by a mixed mu antagonist-kappa agonist (N-CBM-TAMO) and a long-acting selective D1 antagonist (AS-300)” (Bioorg Med Chem Lett, 1996)
# What was measured:
# D(1A) dopamine receptor = D(1A) dopamine receptor (Rattus norvegicus, UniProt P18901); assay: Compound was tested for binding affinity against Dopamine receptor D1 using 1 nM [3H]SCH-23390 as the radioligand.
# D(2) dopamine receptor = D(2) dopamine receptor (Rattus norvegicus, UniProt P61169); assay: Compound was tested for binding affinity against Dopamine receptor D2 using 10 nM [3H]N-methyl-spiperone as the radioligand.
# D(2) dopamine receptor, sequence (P61169 whole entry): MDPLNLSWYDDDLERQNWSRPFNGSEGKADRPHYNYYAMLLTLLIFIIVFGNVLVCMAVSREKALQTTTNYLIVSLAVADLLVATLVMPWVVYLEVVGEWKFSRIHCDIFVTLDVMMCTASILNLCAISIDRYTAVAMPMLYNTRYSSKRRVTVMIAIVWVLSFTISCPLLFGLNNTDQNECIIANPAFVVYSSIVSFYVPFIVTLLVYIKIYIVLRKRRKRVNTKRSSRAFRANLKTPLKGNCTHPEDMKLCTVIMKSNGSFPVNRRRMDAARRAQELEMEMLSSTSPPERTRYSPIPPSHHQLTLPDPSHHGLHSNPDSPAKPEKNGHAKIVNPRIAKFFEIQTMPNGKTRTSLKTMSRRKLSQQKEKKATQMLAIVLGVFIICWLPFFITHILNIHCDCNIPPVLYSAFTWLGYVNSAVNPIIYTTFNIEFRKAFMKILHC
# Mu-type opioid receptor = Mu-type opioid receptor (Bos taurus, UniProt P79350); assay: Compound was tested for binding activity against mu opioid receptor in bovine striatal membranes using 0.25 nM [3H]DAMGO as the radioligand.; assay type: cell membranes, Striatum, Membrane
# Mu-type opioid receptor, sequence (P79350 whole entry): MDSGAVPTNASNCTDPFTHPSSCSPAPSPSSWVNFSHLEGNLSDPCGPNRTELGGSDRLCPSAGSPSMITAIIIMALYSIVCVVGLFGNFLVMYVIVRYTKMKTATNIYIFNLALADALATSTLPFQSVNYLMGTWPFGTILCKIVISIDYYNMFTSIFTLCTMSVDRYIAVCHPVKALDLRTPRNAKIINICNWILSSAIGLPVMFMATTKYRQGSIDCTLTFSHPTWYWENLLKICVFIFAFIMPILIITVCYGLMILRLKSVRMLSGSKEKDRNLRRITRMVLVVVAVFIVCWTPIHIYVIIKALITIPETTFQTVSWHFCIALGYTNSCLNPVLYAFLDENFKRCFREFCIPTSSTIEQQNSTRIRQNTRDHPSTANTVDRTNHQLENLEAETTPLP
# Mus musculus = assay: Compound was tested for its activity using mouse writhing assay after icv administration.; assay type: functional
# D(1A) dopamine receptor, sequence (P18901 whole entry): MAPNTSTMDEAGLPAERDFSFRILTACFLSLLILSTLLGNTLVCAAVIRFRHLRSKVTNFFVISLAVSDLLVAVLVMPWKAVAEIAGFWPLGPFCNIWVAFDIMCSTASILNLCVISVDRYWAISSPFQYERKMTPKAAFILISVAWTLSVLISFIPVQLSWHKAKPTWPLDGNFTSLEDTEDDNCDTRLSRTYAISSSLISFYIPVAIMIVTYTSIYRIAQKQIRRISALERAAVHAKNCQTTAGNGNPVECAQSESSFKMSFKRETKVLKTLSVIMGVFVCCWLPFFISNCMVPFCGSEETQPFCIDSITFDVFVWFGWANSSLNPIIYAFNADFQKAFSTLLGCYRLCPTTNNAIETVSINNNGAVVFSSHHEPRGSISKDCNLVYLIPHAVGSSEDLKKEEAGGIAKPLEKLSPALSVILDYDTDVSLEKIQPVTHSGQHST
Structure (SMILES),IC50 (D(1A) dopamine receptor) [nM],IC50 (D(2) dopamine receptor) [nM],IC50 (Mu-type opioid receptor) [nM],D50 (Mus musculus) [nM]
CN1CCc2cc(Cl)c(O)cc2C(c2cccc(N=C=S)c2)C1 (centres undefined),2.13,978,,
O=C(CSSCC(=O)N[C@@]12CCC(=O)[C@@H]3Oc4c(O)ccc5c4[C@@]31CCN(CC1CCC1)[C@@H]2C5)N[C@@]12CCC(=O)[C@@H]3Oc4c(O)ccc5c4[C@@]31CCN(CC1CCC1)[C@@H]2C5,,,1.95,0.08
